For experiment [1], the target named is T1, recombinant human NK3 receptor (Homo sapiens, UniProt P29371).
T1 construct: expressed in transfected cells; host or cells: HEK293 cells (transient expression), membranes
T1 sequence (P29371 1-465): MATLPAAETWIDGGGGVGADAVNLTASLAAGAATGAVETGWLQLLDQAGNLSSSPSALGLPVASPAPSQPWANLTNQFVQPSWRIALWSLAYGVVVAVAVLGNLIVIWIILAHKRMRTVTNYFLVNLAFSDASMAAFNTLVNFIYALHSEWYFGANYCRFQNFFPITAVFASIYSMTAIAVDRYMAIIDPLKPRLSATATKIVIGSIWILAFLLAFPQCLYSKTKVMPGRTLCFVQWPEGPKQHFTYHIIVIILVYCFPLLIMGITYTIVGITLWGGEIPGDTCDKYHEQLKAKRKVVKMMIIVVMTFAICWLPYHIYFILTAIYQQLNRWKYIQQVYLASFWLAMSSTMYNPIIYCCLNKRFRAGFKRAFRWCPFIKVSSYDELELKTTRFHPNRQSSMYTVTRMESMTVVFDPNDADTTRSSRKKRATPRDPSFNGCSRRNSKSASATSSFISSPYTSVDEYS
The experiment is described as follows: [3H]SR142801 competition binding assay. The following applies: hNK3 receptor binding, [3H]SR142801, membranes from HEK293 cells transiently expressing recombinant human NK3 receptor. The method, then: [^3H]SR142801 competition binding assay
hNK3 receptor binding experiment were performed using [^3H]SR142801 (Catalog No. TRK1035, specific activity: 74.0 Ci/mmol, Amersham, GE Healthcare UK limited, Buckinghamshire, UK) and membrane isolated from HEK293 cells transiently expressing recombinant human NK3 receptor. After thawing, the membrane homogenates were centrifuged at 48,000×g for 10 min at 4° C., the pellets were resuspended in the 50 mM Tris-HCl, 4 mM MnCl2, 1 μM phosphoramidon, 0.1% BSA binding buffer at pH 7.4 to a final assay concentration of 5 μg protein/well. […] At the end of the incubation, membranes were filtered onto unitfilter (96-well white microplate with bonded GF/C filter preincubated 1 h in 0.3% PEI+0.3% BSA, Packard BioScience, Meriden, Conn.) with a Filtermate 196 harvester (Packard BioScience) and washed 4 times with ice-cold 50 mM Tris-HCl, pH 7.4 buffer. Nonspecific binding was measured in the presence of 10 μM SB222200 for both radioligands. The radioactivity on the filter was counted (5 min) on a Packard Top-count microplate scintillation counter with quenching correction after addition of 45 μl of microscint 40 (Canberra Packard S. A., Zürich, Switzerland) and shaking for 1 h. Inhibition curves were fitted according to the Hill equation: y=100/(1+(x/IC50)^nH), where nH=slope factor using Excel-fit 4 software (Microsoft). IC50 values were derived from the inhibition curve and the affinity constant (Ki) values were calculated using the Cheng-Prussoff equation Ki=IC50/(1+[L]/KD) where [L] is the concentration of radioligand and KD is its dissociation constant at the receptor, derived from the saturation isotherm. All experiments were performed in duplicate and the mean±standard error (SEM) of the individual Ki values was calculated.

For experiment [2] the following is noted: phase II trial, cited from earlier work.

SMILES strings stand for the structures.

Take `CN(Cc1ccc(C(F)(F)F)c(F)c1)[C@H]1CN(C(=O)c2ccc(-c3ccccn3)cc2)C[C@@H]1c1ccc(Cl)c(Cl)c1` (racemic) [Example 43, {(3SR,4RS)-3-(3,4-Dichloro-phenyl)-4-[(3-fluoro-4-trifluoromethyl-benzyl)-methyl-amino]-pyrrolidin-1-yl}-(4-pyridin-2-yl-phenyl)-methanone]: the inhibition constant (Ki) in experiment [1] is 5.1 nM.
Still for that read-out and setting: the figure for `CN(Cc1ccc(C(F)(F)F)c(F)c1)[C@H]1CN(C(=O)c2ccc(-c3cccnc3)cc2)C[C@@H]1c1ccc(Cl)c(Cl)c1` (racemic) [Example 44, {(3SR,4RS)-3-(3,4-Dichloro-phenyl)-4-[(3-fluoro-4-trifluoromethyl-benzyl)-methyl-amino]-pyrrolidin-1-yl}-(4-pyridin-3-yl-phenyl)-methanone] is 5.6 nM.
Regarding `CN(Cc1ccc(C(F)(F)F)c(F)c1)[C@H]1CN(C(=O)c2ccc(-c3ccncc3)cc2)C[C@@H]1c1ccc(Cl)c(Cl)c1` (racemic) [Example 45, {(3SR,4RS)-3-(3,4-Dichloro-phenyl)-4-[(3-fluoro-4-trifluoromethyl-benzyl)-methyl-amino]-pyrrolidin-1-yl}-(4-pyridin-4-yl-phenyl)-methanone], the inhibition constant Ki in experiment [1] was determined as 2.5 nM.
Still for that read-out and setting: the figure for `CN(Cc1ccc(C(F)(F)F)c(F)c1)[C@H]1CN(C(=O)c2ccc(-c3nnco3)cc2)C[C@@H]1c1ccc(Cl)c(Cl)c1` (racemic) [Example 47, {(3SR,4RS)-3-(3,4-Dichloro-phenyl)-4-[(3-fluoro-4-trifluoromethyl-benzyl)-methyl-amino]-pyrrolidin-1-yl}-(4-[1,3,4]oxadiazol-2-yl-phenyl)-methanone] is 2.3 nM; for `CN(Cc1ccc(C(F)(F)F)c(F)c1)[C@H]1CN(C(=O)c2ccc(O)nc2)C[C@@H]1c1ccc(Cl)c(Cl)c1` (racemic) [Example 48, {(3SR,4RS)-3-(3,4-Dichloro-phenyl)-4-[(3-fluoro-4-trifluoromethyl-benzyl)-methyl-amino]-pyrrolidin-1-yl}-(6-hydroxy-pyridin-3-yl)-methanone] it is 47.8 nM.
As for `CN(Cc1ccc(C(F)(F)F)c(F)c1)[C@H]1CN(C(=O)c2ccc3cnccc3n2)C[C@@H]1c1ccc(Cl)c(Cl)c1` (racemic) [Example 51, {(3SR,4RS)-3-(3,4-Dichloro-phenyl)-4-[(3-fluoro-4-trifluoromethyl-benzyl)-methyl-amino]-pyrrolidin-1-yl}-[1,6]naphthyridin-2-yl-methanone], the inhibitory constant (Ki) in experiment [1] amounted to 14.6 nM.
On the same count and under the same terms, the figure for `COc1ncc(C(=O)N2C[C@H](c3ccc(Cl)c(Cl)c3)[C@@H](N(C)Cc3ccc(C(F)(F)F)c(F)c3)C2)cn1` (racemic) [Example 57, {(3SR,4RS)-3-(3,4-Dichloro-phenyl)-4-[(3-fluoro-4-trifluoromethyl-benzyl)-methyl-amino]-pyrrolidin-1-yl}-(2-methoxy-pyrimidin-5-yl)-methanone] is 22.3 nM; for `CN(Cc1ccc(C(F)(F)F)c(F)c1)[C@H]1CN(C(=O)c2ccc3nn[nH]c3c2)C[C@@H]1c1ccc(Cl)c(Cl)c1` (racemic) [Example 59, (3H-Benzotriazol-5-yl)-{(3SR,4RS)-3-(3,4-dichloro-phenyl)-4-[(3-fluoro-4-trifluoromethyl-benzyl)-methyl-amino]-pyrrolidin-1-yl}-methanone] it is 31.8 nM; for `CN(Cc1ccc(C(F)(F)F)c(F)c1)[C@H]1CN(C(=O)c2ccc3nc[nH]c3c2)C[C@@H]1c1ccc(Cl)c(Cl)c1` (racemic) [Example 60, (3H-Benzoimidazol-5-yl)-{(3SR,4RS)-3-(3,4-dichloro-phenyl)-4-[(3-fluoro-4-trifluoromethyl-benzyl)-methyl-amino]-pyrrolidin-1-yl}-methanone] it is 17.3 nM.
In the case of `CC(=O)Nc1ccc(C(=O)N2C[C@H](c3ccc(Cl)c(Cl)c3)[C@@H](N(C)Cc3ccc(C(F)(F)F)c(F)c3)C2)cc1` (racemic) [Example 61, N-(4-{(3SR,4RS)-3-(3,4-Dichloro-phenyl)-4-[(3-fluoro-4-trifluoromethyl-benzyl)-methyl-amino]-pyrrolidine-1-carbonyl}-phenyl)-acetamide], the Ki in experiment [1] amounted to 37.3 nM.
On the same count and under the same terms, then `CN(Cc1ccc(C(F)(F)F)c(F)c1)[C@H]1CN(C(=O)c2ccc(N3CCN(C(=O)OC(C)(C)C)CC3)nc2)C[C@@H]1c1ccc(Cl)c(Cl)c1` (racemic) [Example 63, 4-(5-{(3SR,4RS)-3-(3,4-Dichloro-phenyl)-4-[(3-fluoro-4-trifluoromethyl-benzyl)-methyl-amino]-pyrrolidine-1-carbonyl}-pyridin-2-yl)-piperazine-1-carboxylic acid tert-butyl ester], with 24.7 nM.
Take `CN(Cc1ccc(C(F)(F)F)c(F)c1)[C@H]1CN(C(=O)c2ccc(N3CCS(=O)(=O)CC3)nc2)C[C@@H]1c1ccc(Cl)c(Cl)c1` (racemic) [Example 64, {(3SR,4RS)-3-(3,4-Dichloro-phenyl)-4-[(3-fluoro-4-trifluoromethyl-benzyl)-methyl-amino]-pyrrolidin-1-yl}-[6-(1,1-dioxo-1-6-thiomorpholin-4-yl)-pyridin-3-yl]-methanone]: the inhibition constant Ki in experiment [1] is 2 nM.
The same measure, in the same setting: the figure for `CN(Cc1ccc(C(F)(F)F)c(F)c1)[C@H]1CN(C(=O)c2ccc(C#N)cc2)C[C@@H]1c1ccc(Cl)c(F)c1` (racemic) [Example 66, 4-{(3SR,4RS)-3-(4-Chloro-3-fluoro-phenyl)-4-[(3-fluoro-4-trifluoromethyl-benzyl)-methyl-amino]-pyrrolidine-1-carbonyl}-benzonitrile] is 12.6 nM.
As for `CN(Cc1ccc(C(F)(F)F)c(F)c1)[C@H]1CN(C(=O)c2ccc(-c3cnco3)cc2)C[C@@H]1c1ccc(Cl)c(Cl)c1` (racemic) [Example 67, {(3SR,4RS)-3-(3,4-Dichloro-phenyl)-4-[(3-fluoro-4-trifluoromethyl-benzyl)-methyl-amino]-pyrrolidin-1-yl}-(4-oxazol-5-yl-phenyl)-methanone], in experiment [1], the inhibitory constant (Ki) was 4.5 nM.
In the case of `CN(Cc1ccc(C(F)(F)F)cc1)[C@H]1CN(C(=O)c2ccc(C#N)cc2)C[C@@H]1c1ccc(Cl)c(Cl)c1` (racemic) [Example 68, 4-{(3SR,4RS)-3-(3,4-Dichloro-phenyl)-4-[methyl-(4-trifluoromethyl-benzyl)-amino]-pyrrolidine-1-carbonyl}-benzonitrile], the Ki in experiment [1] is 14.6 nM.
For `CC(=O)N(C)C1(c2ccccc2)CCN(CCC[C@]2(c3ccc(Cl)c(Cl)c3)CCCN(C(=O)c3ccccc3)C2)CC1` [SR 142,801, Osanetant], the “activity on positive symptoms of schizophrenia” value in experiment [2] (altered behavior, delusion, hallucinations, extreme emotions, excited motor activity, incoherent speech) is recorded as “active”. Moreover, the “activity in the treatment of negative symptoms” value in experiment [2] (depression, anhedonia, social isolation or memory and attention deficits) was “inactive”.

The Ki is the dissociation constant of the complex between target and ligand, obtained from inhibition or displacement.

The values are drawn from patent US8293770B2, “Pyrrolidine derivatives as NK-3 receptor antagonists” (Hoffmann-La Roche Inc., priority 2008, dated 2012).
